Reference: ChEMBL document CHEMBL1201862, “PubChem BioAssay data set” (2004)
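96-well plates; 48 h exposure; 5 concentrations. Endpoints by linear interpolation between flanking doses. Not reached: highest tested concentration assigned. Abbreviation: GI50, concentration required for 50% inhibition of growth.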 Active and inactive are the calls of the source. Rule as the data show it: active = GI50 up to about 1.1 µM and inactive = higher.

Columns and labels:
Experiment in all cases: NCI tumour cell line growth inhibition, 48 h
SF-295 = system: SF-295
SNB-75 = system: SNB-75
A498 = system: A498
U-251 = system: U-251
K562 = system: K562
EKVX = system: EKVX
ACHN = system: ACHN
CCRF-CEM = system: CCRF-CEM
786-0 = system: 786-0
RPMI-8226 = system: RPMI-8226
OVCAR-5 = system: OVCAR-5
SW-620 = system: SW-620
NCI-H460 = system: NCI-H460
OVCAR-4 = system: OVCAR-4
HCT-116 = system: HCT-116
SF-539 = system: SF-539
SN12C = system: SN12C
SNB-19 = system: SNB-19
MDA-MB-231 = system: MDA-MB-231

Measured: GI50

CC(C)C1CC2C(=O)N(c3ccccc3)C(=O)C2c2[nH]c3ccccc3c21 (centres undefined)
inactive: SF-295 6.9 µM | SNB-75 6.98 µM | A498 32 µM | U-251 12 µM | K562 4.85 µM | EKVX 61.7 µM | ACHN 4.4 µM | CCRF-CEM 14 µM | 786-0 21.1 µM | RPMI-8226 19.8 µM | OVCAR-5 > 100 µM | SW-620 8.26 µM | NCI-H460 4.63 µM | OVCAR-4 2.32 µM | HCT-116 4.13 µM | SF-539 13.8 µM

COc1c(Br)cc(Br)c(OC)c1-c1ccc[nH]1
inactive: SF-295 > 100 µM | SNB-75 22.1 µM | A498 > 100 µM | U-251 > 100 µM | K562 22.3 µM | EKVX > 100 µM | ACHN > 100 µM | CCRF-CEM 78.9 µM | 786-0 > 100 µM | RPMI-8226 80.4 µM | OVCAR-5 > 100 µM | SW-620 35 µM | NCI-H460 > 100 µM | OVCAR-4 22.1 µM | HCT-116 97.3 µM | SF-539 > 100 µM

CCCCCCC(=O)C/C(CCC(=O)N(Cc1ccccc1)Cc1ccccc1)=N\NC(N)=O
inactive: SF-295 > 100 µM | SNB-75 > 100 µM | A498 > 100 µM | U-251 > 100 µM | K562 > 100 µM | EKVX > 100 µM | ACHN > 100 µM | CCRF-CEM > 100 µM | 786-0 > 100 µM | RPMI-8226 > 100 µM | OVCAR-5 > 100 µM | SW-620 > 100 µM | NCI-H460 > 100 µM | SN12C > 100 µM | SNB-19 > 100 µM | OVCAR-4 > 100 µM | HCT-116 > 100 µM | SF-539 > 100 µM

COc1ccc(OC)c(NC(=O)C(=O)CC(=O)c2sc(-n3nc(-c4ccccc4)cc3-c3ccccc3)nc2C)c1
inactive: SF-295 > 100 µM | SNB-75 > 100 µM | A498 > 100 µM | U-251 > 100 µM | K562 > 100 µM | CCRF-CEM > 100 µM | 786-0 > 100 µM | RPMI-8226 > 100 µM | OVCAR-5 > 100 µM | SW-620 > 100 µM | NCI-H460 > 100 µM | SN12C > 100 µM | SNB-19 > 100 µM | OVCAR-4 > 100 µM | HCT-116 > 100 µM | SF-539 > 100 µM

CCOC(=O)C1CCCCN1C(=O)OCc1ccccc1 (centres undefined)
inactive: SF-295 > 100 µM | SNB-75 > 100 µM | A498 > 100 µM | U-251 86.1 µM | K562 > 100 µM | EKVX > 100 µM | ACHN > 100 µM | CCRF-CEM > 100 µM | 786-0 > 100 µM | OVCAR-5 > 100 µM | SW-620 > 100 µM | NCI-H460 > 100 µM | SN12C > 100 µM | SNB-19 > 100 µM | OVCAR-4 > 100 µM | HCT-116 > 100 µM | SF-539 > 100 µM

CC(C)(C)NC(=O)NC12CC3CC(CC(F)(C3)C1)C2
inactive: SNB-75 52.7 µM | A498 > 100 µM | U-251 > 100 µM | K562 > 100 µM | EKVX > 100 µM | ACHN > 100 µM | CCRF-CEM > 100 µM | 786-0 > 100 µM | RPMI-8226 > 100 µM | OVCAR-5 > 100 µM | SW-620 > 100 µM | NCI-H460 > 100 µM | SNB-19 > 100 µM | HCT-116 > 100 µM | SF-539 > 100 µM

CC(=O)Nc1ccccc1-c1nc2ccccc2nc1-c1ccccc1
inactive: SF-295 > 100 µM | SNB-75 69.7 µM | A498 > 100 µM | U-251 > 100 µM | K562 > 100 µM | EKVX > 100 µM | ACHN > 100 µM | CCRF-CEM > 100 µM | 786-0 > 100 µM | RPMI-8226 > 100 µM | SW-620 > 100 µM | NCI-H460 > 100 µM | SN12C > 100 µM | SNB-19 > 100 µM | OVCAR-4 > 100 µM | HCT-116 > 100 µM | SF-539 > 100 µM

COc1ccc(NC(=O)/C(O)=C/C(=O)c2ccccc2)cc1
inactive: SF-295 > 10 µM | SNB-75 > 10 µM | K562 > 10 µM | EKVX > 10 µM | CCRF-CEM 2.53 µM | 786-0 > 10 µM | RPMI-8226 > 10 µM | SW-620 > 10 µM | SN12C > 10 µM | OVCAR-4 > 10 µM | MDA-MB-231 > 10 µM

N#C/C(=C\c1ccccc1F)C(=O)c1ccccc1
inactive: SF-295 > 100 µM | A498 > 100 µM | U-251 > 100 µM | K562 > 100 µM | EKVX > 100 µM | ACHN > 100 µM | CCRF-CEM > 100 µM | 786-0 > 100 µM | RPMI-8226 > 100 µM | OVCAR-5 > 100 µM | SW-620 > 100 µM | SN12C > 100 µM | SNB-19 > 100 µM | OVCAR-4 > 100 µM | HCT-116 > 100 µM | SF-539 > 100 µM

CCSC(SCC)c1cc2c(cc1Br)OCO2
inactive: SF-295 24.5 µM | SNB-75 18.8 µM | A498 25.8 µM | U-251 17 µM | K562 3.77 µM | EKVX 31.8 µM | ACHN 40.3 µM | CCRF-CEM 16.6 µM | 786-0 33 µM | RPMI-8226 19.4 µM | OVCAR-5 27.2 µM | SW-620 10.6 µM | NCI-H460 18.5 µM | SN12C 30.5 µM | SNB-19 58.9 µM | OVCAR-4 57.8 µM | HCT-116 18.7 µM | SF-539 16.1 µM

CN1CC[C@]2(C)c3ccc(O)cc3CC3CCCC1C32C (some centres undefined)
inactive: SF-295 > 100 µM | SNB-75 80.9 µM | A498 > 100 µM | U-251 > 100 µM | K562 > 100 µM | EKVX > 100 µM | ACHN > 100 µM | CCRF-CEM > 100 µM | 786-0 > 100 µM | RPMI-8226 > 100 µM | OVCAR-5 > 100 µM | NCI-H460 > 100 µM | SN12C > 100 µM | SNB-19 > 100 µM | HCT-116 > 100 µM | SF-539 > 100 µM

C#CCOCn1cnc2c(Cl)ncnc21
inactive: SF-295 > 100 µM | SNB-75 > 100 µM | A498 > 100 µM | U-251 > 100 µM | K562 59.6 µM | EKVX > 100 µM | ACHN > 100 µM | CCRF-CEM > 100 µM | 786-0 > 100 µM | RPMI-8226 > 100 µM | OVCAR-5 > 100 µM | SW-620 > 100 µM | NCI-H460 > 100 µM | SN12C > 100 µM | SNB-19 > 100 µM | OVCAR-4 > 100 µM | HCT-116 > 100 µM | SF-539 > 100 µM
